In EPA's ToxValDB 9.5 (doi:10.2903/j.efsa.2015.4077):

Legend:
[1] = system: Aphidius rhopalosiphi; experiment: LR50; higher = less toxic; details: not reported; mortality
[2] = system: Typhlodromus pyri; experiment: LR50; higher = less toxic; details: not reported; mortality
[3] = system: Apis mellifera; details: acute; oral; unspecified; mortality
[4] = system: Pontoscolex corethrurus; details: acute; duration: 14 days; mortality
[5] = system: Colinus virginianus; details: acute, oral
[6] = system: Daphnia magna; details: chronic/long-term; duration: 21 days
[7] = system: Rattus norvegicus
[8] = system: Canidae; details: chronic; duration: 1 years; oral; Dog Other; organ weight
[9] = system: Pimephales promelas; details: chronic/long-term; duration: 35 days; other
[10] = system: Anas platyrhynchos; details: reproductive
[11] = system: Oncorhynchus mykiss; details: acute; duration: 96 hours; mortality

CC(C)N1C(=O)c2ccccc2NS1(=O)=O [Bentazone]
LR50 [1]: 699 g/ha | LR50 [2]: 2800 g/ha | LD50 [3]: > 200 µg/piece | LC50 [4]: > 1000 mg/kg | LD50 [5]: 565 mg/kg-day | LC50 ([5]; diet): > 500 mg/kg | NOEC [6]: > 101 mg/L | LD50 ([7]; acute, M/F): 1640 mg/kg-day | NOAEL ([7]; chronic, duration: 2 years, other): 9 mg/kg-day | NOAEL ([7]; developmental, development): 100 mg/kg-day | NOAEL ([7]; reproduction developmental): 10.3 mg/kg-day | NOAEL [8]: 13 mg/kg-day | NOEC [9]: 10 mg/L | NOAEL [10]: 56 mg/kg-day | LC50 [11]: > 48.6 µg/mL
